In the NIST ThermoML archive (doi:10.1016/j.tca.2010.11.013):

Test: wn = mass fraction of the nth substance listed
Details: 101 kPa, Liquid; for speed of sound: Sing-around technique in a fixed-path interferometer; for mass density: Vibrating tube method

O=C(CO)[C@@H](O)[C@H](O)[C@H](O)CO [D-fructose] + O
Details	mass density, 288.15 K [kg/m3]	mass density, 293.15 K [kg/m3]	mass density, 298.15 K [kg/m3]	mass density, 303.15 K [kg/m3]	mass density, 308.15 K [kg/m3]	speed of sound, 288.15 K [m/s]	speed of sound, 293.15 K [m/s]	speed of sound, 298.15 K [m/s]	speed of sound, 303.15 K [m/s]	speed of sound, 308.15 K [m/s]
w1 = 0.0209	–	–	1005.17	1003.7	1002.02	1476.2	1492	–	1517.3	1527
w1 = 0.0389	1014.62	1013.56	1012.26	–	1009	1483.1	1498.5	1512	–	1533.2
w1 = 0.0611	1023.64	1022.5	1021.11	1019.51	1017.71	–	1507.8	1520.8	1531.8	–

OC[C@H]1O[C@@](CO)(O[C@H]2O[C@H](CO)[C@@H](O)[C@H](O)[C@H]2O)[C@@H](O)[C@@H]1O [D-sucrose] + O
Details	mass density, 288.15 K [kg/m3]	mass density, 293.15 K [kg/m3]	mass density, 298.15 K [kg/m3]	mass density, 303.15 K [kg/m3]	mass density, 308.15 K [kg/m3]	speed of sound, 288.15 K [m/s]	speed of sound, 293.15 K [m/s]	speed of sound, 298.15 K [m/s]	speed of sound, 303.15 K [m/s]	speed of sound, 308.15 K [m/s]
w1 = 0.0214	1007.5	1006.55	1005.34	1003.89	1002.24	1473.1	1489	1503	1515.1	1525.3
w1 = 0.0419	1015.59	1014.59	1013.33	1011.85	1010.16	1479.3	1495.1	1508.8	1520.5	1530.4
w1 = 0.0614	1023.45	1022.4	1021.1	1019.58	1017.85	1486.3	1501.8	1515.3	1526.8	1536.7
